Experimental data published in patent publication US11183645B2, “Organic thin film and method for manufacturing organic thin film, organic electroluminescence element, display device, illumination device, organic thin film solar cell, thin film transistor, and coating composition” (NIPPON HOSO KYOKAI, priority 2015, dated 2021).
Read-outs that look alike come from different tables or passages of the source.

Assay: acid dissociation constant pKa of the first material
Settings: for pKa (H2O): acid dissociation constant in water, first materials of the electron injection layer
From the text: In the present invention, the “pKa” usually means the “acid dissociation constant in water”. When the pKa cannot be measured in water, it means the “acid dissociation constant in dimethyl sulfoxide (DMSO)”, and when the pKa cannot be measured even in DMSO, it means the “acid dissociation constant in acetonitrile”. The pKa preferably means the “acid dissociation constant in water”.

Structure (SMILES) | pKa (water) | pKa | pKa (H2O)
CN(C)c1ccncc1 [4-DMAP, 4-dimethylaminopyridine] | 9.7 |  | 
CN(C)P(=NC(C)(C)C)(N=P(N(C)C)(N(C)C)N(C)C)N(C)C [Phosphazene base P2-t-Bu] |  |  | 20
COc1cccnc1 [3-MeOP, 3-methoxypyridine] | 4.88 |  | 
C1CCC2=NCCCN2CC1 [DBU, 1,8-diazabicyclo[5.4.0]undecene-7] |  |  | 12.5

Second part, led by results:

pKa (water) | pKa | Structure (SMILES) | pKa (H2O)
 | ≥ 1 | CN(C)c1ccc2cc3ccc(N(C)C)cc3nc2c1 [AOB, acridine orange] | 
 | ≥ 1 | C1=Cc2ccccc2C1 [indene] | 
